Data from patent US11021444B2, “Antiviral compounds” (priority 2013, dated 2021).
Where two headings read alike, the source gives them in different places.

Tests used:
[1] = molecular target: recombinant RSV complex (Human respiratory syncytial virus A, UniProt P28887); assay: RSV Polymerase Inhibition Assay; type: biochemical
Outline: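 10 nM recombinant RSV polymerase complex in Tris-HCl pH 7.5, 6 mM MgCl2 with RNA oligonucleotide template and radionucleotides, incubated 2 h at 30 °C with increasing inhibitor concentrations. Reaction stopped with EDTA; radiolabeled RNA product counted by scintillation.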

[2] = tested on: Respiratory Syncytial Virus (RSV) long strain; assay: microbe, parasite or virus in culture; type: cell-based; conditions: human respiratory syncytial virus, Tables A and B list compounds by EC50 band
Outline: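 HEp-2 cells infected with 100 TCID50 virus per well, compounds in duplicate, 9-point 1/3 dilutions from 100 μM or 1 μM, 1% DMSO. After 5 days at 37 °C, cell viability (CPE protection) read by CCK-8 absorbance at 450 nm, 630 nm background.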

[3] = tested on: RSV replicon; assay: microbe, parasite or virus in culture; type: cell-based; conditions: human respiratory syncytial virus, read-out: EC50, the concentration of the drug required for reducing RSV replicon RNA by 50%
[4] = HEp-2, 120 h, read-out: 50% effective concentration (EC50), HEp-2 cells infected with RSV long strain, 5 days, CCK-8 readout

Chain of recombinant RSV complex (P28887 whole entry): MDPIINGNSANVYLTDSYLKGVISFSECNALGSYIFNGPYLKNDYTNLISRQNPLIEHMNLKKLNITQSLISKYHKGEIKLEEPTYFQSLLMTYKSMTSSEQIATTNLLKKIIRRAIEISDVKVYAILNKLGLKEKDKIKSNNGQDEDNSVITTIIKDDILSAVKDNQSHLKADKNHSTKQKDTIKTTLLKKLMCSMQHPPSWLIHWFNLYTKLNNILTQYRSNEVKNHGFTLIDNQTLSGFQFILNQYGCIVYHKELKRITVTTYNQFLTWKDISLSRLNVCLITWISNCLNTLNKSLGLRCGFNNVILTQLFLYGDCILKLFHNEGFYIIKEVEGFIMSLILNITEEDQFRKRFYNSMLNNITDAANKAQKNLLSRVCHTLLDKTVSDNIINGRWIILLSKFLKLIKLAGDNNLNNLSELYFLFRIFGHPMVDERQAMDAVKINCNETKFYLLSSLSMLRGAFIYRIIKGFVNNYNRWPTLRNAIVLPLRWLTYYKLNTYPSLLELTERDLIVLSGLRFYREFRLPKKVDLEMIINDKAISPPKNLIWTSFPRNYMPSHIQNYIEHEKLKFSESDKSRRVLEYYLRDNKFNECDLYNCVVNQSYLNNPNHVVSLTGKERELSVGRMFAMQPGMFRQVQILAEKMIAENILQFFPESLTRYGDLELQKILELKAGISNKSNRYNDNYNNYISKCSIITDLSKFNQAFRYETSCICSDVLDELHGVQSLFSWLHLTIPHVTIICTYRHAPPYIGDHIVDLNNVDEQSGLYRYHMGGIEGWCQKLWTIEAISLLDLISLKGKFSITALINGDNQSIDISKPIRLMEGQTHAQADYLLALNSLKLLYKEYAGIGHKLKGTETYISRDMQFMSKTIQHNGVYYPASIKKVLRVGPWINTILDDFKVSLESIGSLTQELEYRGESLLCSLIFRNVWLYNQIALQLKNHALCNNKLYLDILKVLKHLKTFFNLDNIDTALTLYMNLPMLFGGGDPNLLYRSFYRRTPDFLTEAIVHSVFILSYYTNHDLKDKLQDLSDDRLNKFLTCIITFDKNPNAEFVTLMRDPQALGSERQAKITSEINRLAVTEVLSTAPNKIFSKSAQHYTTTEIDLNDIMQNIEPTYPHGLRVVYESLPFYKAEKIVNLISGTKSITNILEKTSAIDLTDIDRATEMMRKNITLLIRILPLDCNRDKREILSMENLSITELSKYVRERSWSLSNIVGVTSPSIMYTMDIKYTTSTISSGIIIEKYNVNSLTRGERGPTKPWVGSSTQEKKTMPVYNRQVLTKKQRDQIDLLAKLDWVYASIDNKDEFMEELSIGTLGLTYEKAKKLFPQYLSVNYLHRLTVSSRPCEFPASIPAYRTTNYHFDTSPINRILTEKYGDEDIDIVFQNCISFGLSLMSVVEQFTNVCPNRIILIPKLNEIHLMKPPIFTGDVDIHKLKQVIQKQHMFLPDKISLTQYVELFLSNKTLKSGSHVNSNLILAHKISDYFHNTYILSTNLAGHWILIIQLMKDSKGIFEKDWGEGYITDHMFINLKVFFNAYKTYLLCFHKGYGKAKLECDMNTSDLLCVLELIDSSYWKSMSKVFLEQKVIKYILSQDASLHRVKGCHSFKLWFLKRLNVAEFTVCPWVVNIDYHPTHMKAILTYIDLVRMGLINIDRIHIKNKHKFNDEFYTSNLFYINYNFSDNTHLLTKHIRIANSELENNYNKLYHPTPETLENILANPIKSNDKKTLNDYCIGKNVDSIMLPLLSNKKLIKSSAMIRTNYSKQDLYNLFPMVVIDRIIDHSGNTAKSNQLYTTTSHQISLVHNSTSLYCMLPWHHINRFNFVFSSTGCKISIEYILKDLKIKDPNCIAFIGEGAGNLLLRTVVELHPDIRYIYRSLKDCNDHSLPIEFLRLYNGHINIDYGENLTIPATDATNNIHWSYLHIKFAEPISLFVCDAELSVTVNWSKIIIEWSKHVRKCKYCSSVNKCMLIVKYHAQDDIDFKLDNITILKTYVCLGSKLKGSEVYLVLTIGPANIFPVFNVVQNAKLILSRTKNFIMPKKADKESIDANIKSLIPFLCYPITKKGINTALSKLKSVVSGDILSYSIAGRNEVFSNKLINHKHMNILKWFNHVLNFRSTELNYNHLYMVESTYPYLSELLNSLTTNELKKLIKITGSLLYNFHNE
Chain of recombinant RSV complex (P03421 whole entry, further chain): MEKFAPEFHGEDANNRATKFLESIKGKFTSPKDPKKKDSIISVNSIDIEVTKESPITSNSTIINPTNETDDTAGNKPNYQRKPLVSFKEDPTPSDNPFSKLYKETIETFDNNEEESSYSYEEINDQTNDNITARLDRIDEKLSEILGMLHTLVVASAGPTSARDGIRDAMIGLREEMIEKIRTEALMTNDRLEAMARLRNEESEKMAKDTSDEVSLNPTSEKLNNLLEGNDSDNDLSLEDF

SMILES | IC50 [1] | EC50 [2, 4] | EC50 [3] | EC50 ([2]; 120 h, read-out: 50% effective concentration (EC50), HEp-2 cells infected with RSV long strain, 5 days, CCK-8 readout)
COc1cc(C(=O)NC[C@](O)(c2cc3c(c(-c4ccc(C#N)cc4)n2)OC[C@]3(C)N)C(F)(F)F)ccc1OCCO [Compound 604d] | < 1 µM | < 1 µM | < 1 µM | –
COc1cc(C(=O)NCC(O)(c2cc(C(C)(C)N)cc(-c3ccc(F)c(Cl)c3)n2)C(F)(F)F)ccc1OCC(F)(F)F (centres unmarked) [Compound 325] | < 1 µM | < 1 µM | < 1 µM | –
COc1cc(C(=O)NCC(O)(c2cc(C(C)(C)N)cc(-c3ccc(Cl)cc3)n2)C(F)(F)F)ccc1OC1CC1 (centres unmarked) [Compound 520] | < 1 µM | – | < 1 µM | < 1 µM
CC(C)(N)c1cc(-c2ccc(F)c(Cl)c2)nc(C(O)(CNC(=O)c2ccc3c(c2)OC(F)(F)O3)C(F)(F)F)c1 (centres unmarked) [Compound 275] | < 1 µM | 1 to 50 µM | < 1 µM | –
COc1cc(C(=O)NCC(O)(c2cc(C(C)(C)N)cc(-c3ccc(F)c(Cl)c3)n2)C(F)(F)F)ccc1OC1CC1 (centres unmarked) [Compound 314] | < 1 µM | < 1 µM | < 1 µM | –
CC(C)(N)c1cc(-c2ccc(F)c(Cl)c2)nc(C(O)(CNC(=O)c2ccc(OC3CC3)c(Cl)c2)C(F)(F)F)c1 (centres unmarked) [Compound 282] | < 1 µM | < 1 µM | < 1 µM | –
COc1cc(C(=O)NCC(O)(c2cc(C(C)(C)NC(=O)CN)cc(-c3ccc(F)c(Cl)c3)n2)C(F)(F)F)ccc1OC1CC1 (centres unmarked) [Compound 497] | < 1 µM | < 1 µM | < 1 µM | –
CCOc1ccc(C(=O)NCC(O)(c2cc3c(c(-c4ccc(F)c(Cl)c4)n2)OCC3(C)N)C(F)(F)F)cc1Cl (centres unmarked) [Compound 494] | < 1 µM | < 1 µM | < 1 µM | –
CNC(C)(C)c1cc(-c2ccc(F)cc2)nc(C(O)(CNC(=O)c2ccc(OC3CC3)c(OC)c2)C(F)(F)F)c1 (centres unmarked) [Compound 393] | < 1 µM | – | < 1 µM | –
COc1cc(C(=O)NCC(O)(c2cc(C(C)(C)N)cc(-c3ccc(F)cc3)n2)C(F)(F)F)ccc1O[C@H]1CCNC1=O (some centres unmarked) [Compound 319] | < 1 µM | – | < 1 µM | –
COc1cc(C(=O)NCC(O)(c2cc(C3(C)CCN(C)C3)cc(-c3ccc(F)cc3)n2)C(F)(F)F)ccc1OC1CC1 (centres unmarked) [Compound 506] | < 1 µM | – | < 1 µM | –
COc1cc(C(=O)NCC(O)(c2cc(C3CCNCC3)cc(-c3ccc(F)c(Cl)c3)n2)C(F)(F)F)ccc1OC1CC1 (centres unmarked) [Compound 576] | < 1 µM | – | < 1 µM | –
COc1cc(C(=O)NCC(O)(c2ccc(OC)c(-c3ccc(F)c(Cl)c3)n2)C(F)(F)F)ccc1OCc1ccn[nH]1 (centres unmarked) [Compound 332] | < 1 µM | – | 1 to 50 µM | –
COc1cc(C(=O)NCC(=O)c2cc3c(c(-c4ccc(F)c(Cl)c4)n2)OCCC3(C)C)ccc1OCCO [Compound 311] | < 1 µM | – | < 1 µM | –
COc1cc(C(=O)NCC(O)(c2ccc(OC)c(-c3ccc(F)c(Cl)c3)n2)C(F)(F)F)ccc1OC(C)C (centres unmarked) [Compound 378] | < 1 µM | – | 1 to 50 µM | –
COc1cc(C(=O)NCC(O)(c2cc(C3(C)CC(O)C3)cc(-c3ccc(F)c(Cl)c3)n2)C(F)(F)F)ccc1OC1CC1 (centres unmarked) [Compound 564] | < 10 µM | – | < 1 µM | –
COc1cc(C(=O)NCC(C)(OC)c2ccc(OC)c(-c3ccc(F)c(Cl)c3)n2)ccc1OC1CC1 (centres unmarked) [Compound 376] | < 1 µM | – | < 1 µM | –
COc1cc(C(=O)NCC(O)(c2cc(C(C)(C)N)cc(-c3ccc(F)c(Cl)c3)n2)C(F)(F)F)ccc1OCC(F)F (centres unmarked) [Compound 395] | < 1 µM | – | < 1 µM | –
COc1cc(C(=O)NCC(O)(c2cc(C(C)(C)CN)cc(-c3ccc(F)c(Cl)c3)n2)C(F)(F)F)ccc1OC1CC1 (centres unmarked) [Compound 397] | < 1 µM | – | < 1 µM | –
COc1cc(C(=O)NCC(O)(c2cc(C(C)(C)N)cc(-c3ccc(Cl)nc3)n2)C(F)(F)F)ccc1OC1CC1 (centres unmarked) [Compound 567] | < 1 µM | – | < 1 µM | –

SMILES | IC50 [1] | EC50 [2, 4] | EC50 [3] | EC50 ([2]; 120 h, read-out: 50% effective concentration (EC50), HEp-2 cells infected with RSV long strain, 5 days, CCK-8 readout)
COc1cc(C(=O)NCC(F)(c2cc(C(C)(C)N)cc(-c3ccc(F)c(Cl)c3)n2)C(F)(F)F)ccc1OC1CC1 (centres unmarked) [Compound 641] | < 1 µM | – | < 1 µM | –
COC(=O)C(C)(N)c1cc(-c2ccc(F)cc2)nc(C(O)(CNC(=O)c2ccc(OC3CC3)c(OC)c2)C(F)(F)F)c1 (centres unmarked) [Compound 622] | < 1 µM | – | < 1 µM | –
COc1cc(C(=O)NCC(O)(c2cc3c(c(-c4ccc(F)cc4)n2)OCC3(C)N)C(F)(F)F)ccc1OC1CC1 (centres unmarked) [Compound 509] | < 1 µM | – | < 1 µM | –
COc1cc(C(=O)NCC(O)(c2cc(C(C)(C)NC(C)=O)cc(-c3ccc(F)c(Cl)c3)n2)C(F)(F)F)ccc1OC[C@@H](C)O (some centres unmarked) [Compound 601] | < 1 µM | – | < 1 µM | –
COc1cc(C(=O)NCC(O)(c2cc(C(C)(N)CO)cc(-c3ccc(F)cc3)n2)C(F)(F)F)ccc1OC1CC1 (centres unmarked) [Compound 600] | < 1 µM | – | < 1 µM | –
COc1cc(C(=O)NCC(O)(c2cc(C3(NC(C)=O)CCC3)cc(-c3ccc(F)c(Cl)c3)n2)C(F)(F)F)ccc1OC1CC1 (centres unmarked) [Compound 354] | < 1 µM | – | < 1 µM | –
COc1ccc(C(O)(CNC(=O)c2ccc(OCC(N)=O)c(F)c2)C(F)(F)F)nc1-c1ccc(F)c(Cl)c1 (centres unmarked) [Compound 380] | < 1 µM | – | < 1 µM | –
CCNC(C)(C)c1cc(-c2ccc(F)c(Cl)c2)nc(C(O)(CNC(=O)c2ccc(OC3CC3)c(OC)c2)C(F)(F)F)c1 (centres unmarked) [Compound 390] | < 1 µM | – | < 1 µM | –
COc1cc(C(=O)NCC(C)(O)c2cc3c(c(-c4ccc(F)c(Cl)c4)n2)OCC=C3)ccc1OCCO (centres unmarked) [Compound 307] | < 1 µM | – | < 1 µM | –
COc1cc(C(=O)NCC(C)(O)c2cc(C(C)(C)N)cc(-c3ccc(F)cc3)n2)ccc1OCC(N)=O (centres unmarked) [Compound 602] | < 1 µM | – | < 1 µM | –
COc1cc(C(=O)NCC(O)(c2cc(C(C)(C)N)cc(-c3ccc(F)c(Cl)c3)n2)C(F)(F)F)ccc1OCC(C)OC(=O)OC(C)C (centres unmarked) [Compound 572] | < 10 µM | – | < 1 µM | –
COc1cc(C(=O)NCC(O)(c2cc(C(C)(C)N)cc(-c3ccc(C(F)(F)F)cc3)n2)C(F)(F)F)ccc1OC1CC1 (centres unmarked) [Compound 523] | < 1 µM | – | < 1 µM | –
COc1cc(C(=O)NCC(O)(c2ccc(OC)c(-c3ccc(F)c(Cl)c3)n2)C2CC2)ccc1OCC(N)=O (centres unmarked) [Compound 398] | < 1 µM | – | < 1 µM | –
COc1cc(C(=O)NCC(O)(c2cc(C(C)(C)NC3COC3)cc(-c3ccc(F)cc3)n2)C(F)(F)F)ccc1OC1CC1 (centres unmarked) [Compound 581] | < 1 µM | – | < 1 µM | –
COc1cc(C(=O)NCC(O)(c2cc(C3(O)CNC3)cc(-c3ccc(F)c(Cl)c3)n2)C(F)(F)F)ccc1OC1CC1 (centres unmarked) [Compound 555] | < 1 µM | – | < 1 µM | –
COc1cc(C(=O)NCC(O)(c2cc3c(c(-c4c[nH]c5c(F)cccc45)n2)OCC3(C)N)C(F)(F)F)ccc1OCCO (centres unmarked) [Compound 647] | < 1 µM | – | < 1 µM | –
COc1cc(C(=O)NCC(O)(c2cc(C(C)(C)N)cc(-c3ccc(F)c(Br)c3)n2)C(F)(F)F)ccc1OC1CC1 (centres unmarked) [Compound 524] | < 1 µM | – | < 1 µM | –
COc1cc(-c2cc(C(C)(C)N)cc(C(O)(CNC(=O)c3ccc(OCCO)c(OC)c3)C(F)(F)F)n2)ccn1 (centres unmarked) [Compound 659] | < 10 µM | – | < 1 µM | –
COc1ccc(C(=O)NCC(O)(c2cc(C(C)(C)N)cc(-c3ccc(F)c(Cl)c3)n2)C(F)(F)F)cc1OC (centres unmarked) [Compound 316] | < 1 µM | – | < 1 µM | –
